Values of other authors, collected in PubChem BioAssay AID1259409 (Chemical Carcinogenesis Research Information System (CCRIS), 2018).
“And” between values parts separate entries of the source, which are not always exact repeats. Identical values can stand only once.

Tested on: rodent chemically induced tumor inhibition, incidence and multiplicity
Experiment: CCRIS tumor inhibitor studies
Settings: Species: RAT, Promoter: NONE USED

CN1C(C(=O)Nc2ccccn2)=C(O)c2ccccc2S1(=O)=O
tumour outcome (control, treated, inhibition, significance) (Carcinogen: AZOXYMETHANE, 25843-45-2, Dose [Inhibitor]: 0, 400 PPM IN DIET BEGINNING 1 WK PRIOR TO CARCINOGEN TREATMENT FOR DURATION OF STUDY (STUDY DURATION: 54 WK), Route [Inhibitor]: ORAL, Strain/Sex: F344/MALE, Target Tissue: Type of Lesion: COLON: ADENOCARCINOMA, Dose [Carcinogen]: 15 MG/KG/BW 1/WK FOR 2 WK): 58%, 19%, 67%, p<0.01
tumour outcome (control, treated, inhibition, significance) (Carcinogen: AZOXYMETHANE, 25843-45-2, Dose [Inhibitor]: 0, 400 PPM IN DIET BEGINNING 1 WK PRIOR TO CARCINOGEN TREATMENT FOR DURATION OF STUDY (STUDY DURATION: 54 WK), Route [Inhibitor]: ORAL, Strain/Sex: F344/MALE, Target Tissue: Type of Lesion: COLON: ADENOMA, Dose [Carcinogen]: 15 MG/KG/BW 1/WK FOR 2 WK): 6%, 3%, 50%, not calculated
tumour outcome (control, treated, inhibition, significance) (Carcinogen: AZOXYMETHANE, 25843-45-2, Dose [Inhibitor]: 0, 400 PPM IN DIET BEGINNING PRIOR TO CARCINOGEN DOSE AND CONTINUING FOR DURATION OF STUDY (STUDY DURATION: 54 WK), Route [Inhibitor]: ORAL, Strain/Sex: F344/MALE, Target Tissue: Type of Lesion: COLON: ADENOCARCINOMA, Dose [Carcinogen]: 15 MG/KG 1/WK FOR 2 WK): 72%, 22%, 69%, p<0.001
tumour outcome (control, treated, inhibition, significance) (Carcinogen: AZOXYMETHANE, 25843-45-2, Dose [Inhibitor]: 0, 400 PPM IN DIET BEGINNING PRIOR TO CARCINOGEN DOSE AND CONTINUING FOR DURATION OF STUDY (STUDY DURATION: 54 WK), Route [Inhibitor]: ORAL, Strain/Sex: F344/MALE, Target Tissue: Type of Lesion: COLON: ADENOMA, Dose [Carcinogen]: 15 MG/KG 1/WK FOR 2 WK): 14%, 6%, 57%, not calculated
tumour outcome (control, treated, inhibition, significance) (Carcinogen: AZOXYMETHANE, 25843-45-2, Dose [Inhibitor]: 0, 400 PPM IN DIET BEGINNING PRIOR TO CARCINOGEN DOSE AND CONTINUING FOR DURATION OF STUDY (STUDY DURATION: 54 WK), Route [Inhibitor]: ORAL, Strain/Sex: F344/MALE, Target Tissue: Type of Lesion: SMALL INTESTINE: ADENOCARCINOMA, Dose [Carcinogen]: 15 MG/KG 1/WK FOR 2 WK): 50%, 8%, 84%, p<0.001
tumour outcome (control, treated, inhibition, significance) (Carcinogen: AZOXYMETHANE, 25843-45-2, Dose [Inhibitor]: 0, 400 PPM IN DIET BEGINNING PRIOR TO CARCINOGEN DOSE AND CONTINUING FOR DURATION OF STUDY (STUDY DURATION: 54 WK), Route [Inhibitor]: ORAL, Strain/Sex: F344/MALE, Target Tissue: Type of Lesion: SMALL INTESTINE: ADENOMA, Dose [Carcinogen]: 15 MG/KG 1/WK FOR 2 WK): 3%, 0%, 100%, not calculated
tumour outcome (control, treated, inhibition, significance) (Carcinogen: AZOXYMETHANE, 25843-45-2, Dose [Inhibitor]: 0, 400 PPM IN DIET FOR 56 WK BEGINNING 2 WK PRIOR TO CARCINOGEN TREATMENT (STUDY DURATION: 56 WK), Route [Inhibitor]: ORAL, Strain/Sex: F344/MALE, Target Tissue: Type of Lesion: COLON(DISTAL): TUMOR, Dose [Carcinogen]: 15 MG/KG 1/WK FOR 2 WK): 52%, 22%, 58%, p<0.05
tumour outcome (control, treated, inhibition, significance) (Carcinogen: AZOXYMETHANE, 25843-45-2, Dose [Inhibitor]: 0, 400 PPM IN DIET FOR 56 WK BEGINNING 2 WK PRIOR TO CARCINOGEN TREATMENT (STUDY DURATION: 56 WK), Route [Inhibitor]: ORAL, Strain/Sex: F344/MALE, Target Tissue: Type of Lesion: COLON(PROXIMAL): TUMOR, Dose [Carcinogen]: 15 MG/KG 1/WK FOR 2 WK): 38%, 7%, 82%, p<0.001
tumour outcome (control, treated, inhibition, significance) (Carcinogen: AZOXYMETHANE, 25843-45-2, Dose [Inhibitor]: 0, 400 PPM IN DIET FOR 56 WK BEGINNING 2 WK PRIOR TO CARCINOGEN TREATMENT (STUDY DURATION: 56 WK), Route [Inhibitor]: ORAL, Strain/Sex: F344/MALE, Target Tissue: Type of Lesion: SMALL INTESTINE(DISTAL): TUMOR, Dose [Carcinogen]: 15 MG/KG 1/WK FOR 2 WK): 12%, 9%, 25%, not significant
tumour outcome (control, treated, inhibition, significance) (Carcinogen: AZOXYMETHANE, 25843-45-2, Dose [Inhibitor]: 0, 400 PPM IN DIET FOR 56 WK BEGINNING 2 WK PRIOR TO CARCINOGEN TREATMENT (STUDY DURATION: 56 WK), Route [Inhibitor]: ORAL, Strain/Sex: F344/MALE, Target Tissue: Type of Lesion: SMALL INTESTINE(PROXIMAL): TUMOR, Dose [Carcinogen]: 15 MG/KG 1/WK FOR 2 WK): 33%, 9%, 73%, p<0.05
tumour outcome (control, treated, inhibition, significance) (Carcinogen: INTRARECTAL, Dose [Inhibitor]: N-METHYLNITROSOUREA, 684-93-5, Route [Inhibitor]: 0, 130 MG/KG VEGETABLE DIET (2.5 MG/D) BEGINNING 7 D POST LAST CARCINOGEN TREATMENT AND CONTINUING FOR STUDY DURATION (S, Strain/Sex: CD-1/MALE, Target Tissue: Type of Lesion: INTESTINE: TUMOR): 9/9 (100%), 5/10 (50%), 50%, not calculated
tumour outcome (control, treated, inhibition, significance) (Carcinogen: METHYLAZOXYMETHANOL, 590-96-5, Dose [Inhibitor]: 8 MG/KG BW/D IN DIET FOR 19 WK STARTING 7 D AFTER CARCINOGEN TREATMENT AND CONTINUING FOR DURATION OF STUDY (STUDY DURAT, Route [Inhibitor]: ORAL, Strain/Sex: SPRAGUE-DAWLEY/MALE, Target Tissue: Type of Lesion: INTESTINES: TUMOR, Dose [Carcinogen]: 30 MG/KG BW ONCE): 9/9 (100%), 4/10 (40%), 60%, not calculated
tumour outcome (control, treated, inhibition, significance) (Carcinogen: METHYLAZOXYMETHANOL, 590-96-5, Dose [Inhibitor]: 8.25 MG/KG BW/D IN DIET FOR 19 WK STARTING 7 D AFTER CARCINOGEN TREATMENT AND CONTINUING FOR DURATION OF STUDY (STUDY DU, Route [Inhibitor]: ORAL, Strain/Sex: SPRAGUE-DAWLEY/MALE, Target Tissue: Type of Lesion: INTESTINES: TUMOR, Dose [Carcinogen]: 30 MG/KG BW ONCE): 9/10 (90%), 2/10 (20%), 78%, not calculated and 9/10 (90%), 7/11 (64%), 29%, not calculated
tumour outcome (control, treated, inhibition, significance) (Carcinogen: METHYLAZOXYMETHANOL, 590-96-5, Dose [Inhibitor]: 12.5 MG/KG BW/D IN DIET FOR 19 WK STARTING 7 D AFTER CARCINOGEN TREATMENT AND CONTINUING FOR DURATION OF STUDY (STUDY DU, Route [Inhibitor]: ORAL, Strain/Sex: SPRAGUE-DAWLEY/MALE, Target Tissue: Type of Lesion: INTESTINES: TUMOR, Dose [Carcinogen]: 30 MG/KG BW ONCE): 8/9 (88%), 3/9 (33%), 63%, not calculated
